Results from ChEMBL document CHEMBL1201862, “PubChem BioAssay data set” (2004).
Calls of active or inactive are those of the source.

What was measured:
[1] = molecular target: T1, DNA repair protein RAD52 homolog (Homo sapiens, UniProt P43351); type: functional, biochemical
T1 sequence (P43351 whole entry): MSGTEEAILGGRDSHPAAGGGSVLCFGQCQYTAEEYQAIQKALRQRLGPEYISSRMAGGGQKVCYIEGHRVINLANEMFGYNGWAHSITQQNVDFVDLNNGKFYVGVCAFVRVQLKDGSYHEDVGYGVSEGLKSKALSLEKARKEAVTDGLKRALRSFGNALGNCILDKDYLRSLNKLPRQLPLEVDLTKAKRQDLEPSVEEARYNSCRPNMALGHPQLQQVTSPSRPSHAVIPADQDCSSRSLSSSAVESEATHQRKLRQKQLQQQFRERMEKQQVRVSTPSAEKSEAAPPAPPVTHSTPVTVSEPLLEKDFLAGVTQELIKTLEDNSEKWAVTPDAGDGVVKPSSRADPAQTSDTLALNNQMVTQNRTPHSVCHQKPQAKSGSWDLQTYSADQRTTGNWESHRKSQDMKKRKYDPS

[2] = molecular target: T2, High affinity choline transporter 1 (Homo sapiens, UniProt Q9GZV3); assay: CHT inhibitors, dose response, cell-based, 5-point CRC, membrane potential dye (AID 504840); type: functional
T2 sequence (Q9GZV3 whole entry): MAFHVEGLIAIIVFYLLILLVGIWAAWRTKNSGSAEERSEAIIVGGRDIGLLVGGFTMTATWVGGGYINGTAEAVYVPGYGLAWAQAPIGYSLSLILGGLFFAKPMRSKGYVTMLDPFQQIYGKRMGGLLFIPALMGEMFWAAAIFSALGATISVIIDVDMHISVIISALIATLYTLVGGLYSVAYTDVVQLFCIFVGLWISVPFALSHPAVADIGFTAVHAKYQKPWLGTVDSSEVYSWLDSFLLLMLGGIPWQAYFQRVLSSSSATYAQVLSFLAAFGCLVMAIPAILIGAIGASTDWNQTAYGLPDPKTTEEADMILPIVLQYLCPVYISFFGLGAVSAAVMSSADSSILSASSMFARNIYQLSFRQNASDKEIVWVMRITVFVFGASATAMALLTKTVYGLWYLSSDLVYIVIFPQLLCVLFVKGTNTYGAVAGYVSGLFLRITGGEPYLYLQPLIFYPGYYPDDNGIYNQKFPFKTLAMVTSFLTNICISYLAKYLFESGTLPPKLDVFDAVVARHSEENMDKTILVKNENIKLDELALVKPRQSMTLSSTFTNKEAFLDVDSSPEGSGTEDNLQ

[3] = inhibitors of HIV Env-driven cell fusion, dose response, cherry-pick (AID 652057); type: functional, cell-based
[4] = ZM109 Env clade C HIV-1 fusion inhibitors, dose response, HeLa effector, CEM target cells, luciferase, cherry-pick (AID 652058); type: functional, cell-based
[5] = off-target signal loss in HeLa-CEM21 co-culture – HeLa F-luc CTL cells, cherry-picked, counter-screen for HIV-1 Env fusion inhibitor project, dose response (AID 652040); type: functional, cell-based;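 also: potency for signal decrease marking cytotoxic or nonspecific inhibition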
[6] = molecular target: T3, DNA repair and recombination protein RAD54-like (Homo sapiens, UniProt Q92698); assay: inhibitors of human RAD54 branch migration, confirmation, biochemical, fluorescence, cherry-picked samples, dose series (AID 651657); type: functional
T3 sequence (Q92698 whole entry): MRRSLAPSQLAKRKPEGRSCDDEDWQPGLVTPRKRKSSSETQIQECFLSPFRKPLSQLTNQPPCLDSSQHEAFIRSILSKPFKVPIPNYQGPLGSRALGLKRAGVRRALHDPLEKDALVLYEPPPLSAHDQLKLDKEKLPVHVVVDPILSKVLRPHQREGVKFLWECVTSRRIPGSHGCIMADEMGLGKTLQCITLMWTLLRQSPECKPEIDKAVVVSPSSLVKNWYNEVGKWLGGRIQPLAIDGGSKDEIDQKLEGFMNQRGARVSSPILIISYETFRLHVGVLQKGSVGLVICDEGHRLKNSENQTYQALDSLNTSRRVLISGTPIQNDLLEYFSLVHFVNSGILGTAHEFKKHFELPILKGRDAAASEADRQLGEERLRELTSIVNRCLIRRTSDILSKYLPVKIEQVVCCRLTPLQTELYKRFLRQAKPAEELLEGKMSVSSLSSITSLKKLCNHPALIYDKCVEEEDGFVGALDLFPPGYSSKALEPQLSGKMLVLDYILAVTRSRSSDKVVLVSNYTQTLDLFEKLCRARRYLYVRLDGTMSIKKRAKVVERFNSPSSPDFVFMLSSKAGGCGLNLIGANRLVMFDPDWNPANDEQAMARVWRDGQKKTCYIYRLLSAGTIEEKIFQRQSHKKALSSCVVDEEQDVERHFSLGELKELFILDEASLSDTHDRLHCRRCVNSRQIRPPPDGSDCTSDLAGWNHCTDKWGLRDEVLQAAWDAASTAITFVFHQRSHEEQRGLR

Large T antigen = Large T antigen (Simian virus 40, UniProt P03070); type: functional, Betapolyomavirus macacae;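 also: Confirmatory-stage PubChem screen for compounds that inhibit SV40 T antigen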
Large T antigen, sequence (P03070 whole entry): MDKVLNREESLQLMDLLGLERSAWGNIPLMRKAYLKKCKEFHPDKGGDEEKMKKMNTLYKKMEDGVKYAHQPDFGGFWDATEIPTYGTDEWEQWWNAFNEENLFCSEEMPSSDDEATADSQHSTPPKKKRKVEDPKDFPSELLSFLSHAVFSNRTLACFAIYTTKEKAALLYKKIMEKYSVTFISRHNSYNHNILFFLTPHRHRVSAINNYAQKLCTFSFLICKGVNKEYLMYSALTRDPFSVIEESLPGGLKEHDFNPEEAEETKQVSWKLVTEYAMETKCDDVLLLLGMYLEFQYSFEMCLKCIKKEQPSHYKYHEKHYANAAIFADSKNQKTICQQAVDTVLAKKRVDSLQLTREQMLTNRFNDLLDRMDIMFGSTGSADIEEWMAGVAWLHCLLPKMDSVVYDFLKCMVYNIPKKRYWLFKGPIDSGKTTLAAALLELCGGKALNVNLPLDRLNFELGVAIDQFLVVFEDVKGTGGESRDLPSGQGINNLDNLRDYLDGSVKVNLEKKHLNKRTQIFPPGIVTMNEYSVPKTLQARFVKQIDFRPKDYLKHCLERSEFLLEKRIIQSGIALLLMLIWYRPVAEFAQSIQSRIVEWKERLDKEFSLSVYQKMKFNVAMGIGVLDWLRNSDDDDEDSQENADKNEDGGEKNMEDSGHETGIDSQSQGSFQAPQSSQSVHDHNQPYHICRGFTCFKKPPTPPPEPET

INS1 = assay: beta cell apoptosis inhibitors, cytokine rescue, dose response, luminescence, retest (AID 449756); type: functional, cell-based; details: Rattus norvegicus;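 also: cell death triggered by IL-1 beta plus TNF-alpha plus IFN-gamma mixture; protective hits raise ATP signal compared with cytokine alone wells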
Nonstructural protein 1 = Nonstructural protein 1 (Influenza A virus, UniProt Q194T2); type: functional, Influenza A virus (A/California/07/2009(H1N1))
Nonstructural protein 1, sequence (Q194T2 whole entry): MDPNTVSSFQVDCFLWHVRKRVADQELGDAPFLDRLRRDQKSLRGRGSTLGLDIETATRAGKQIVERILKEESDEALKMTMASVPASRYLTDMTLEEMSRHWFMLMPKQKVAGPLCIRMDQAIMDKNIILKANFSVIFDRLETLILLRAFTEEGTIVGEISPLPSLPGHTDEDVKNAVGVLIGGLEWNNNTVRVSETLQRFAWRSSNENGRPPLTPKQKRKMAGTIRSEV

Vero = assay: cells; type: functional; details: Chlorocebus sabaeus
[7] = inhibitors of clade B AD8 Env fusion, dose response, cell-based, cherry-pick (AID 652062); type: functional;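 also: luciferase signal from cell-cell fusion driven by HIV-1 clade B AD8 Env; potency is for inhibitors of fusion seen as a drop in luminescence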
[8] = molecular target: T4, Short transient receptor potential channel 4 (Mus musculus, UniProt Q9QUQ5); assay: mouse TRPC4 channel inhibitors, dose response, cell-based, HEK293 TRPC4/mu-opioid, Fluo-4 calcium (AID 434942); type: functional;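 also: potency of inhibitors blocking the TRPC4 calcium response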
T4 sequence (Q9QUQ5 whole entry): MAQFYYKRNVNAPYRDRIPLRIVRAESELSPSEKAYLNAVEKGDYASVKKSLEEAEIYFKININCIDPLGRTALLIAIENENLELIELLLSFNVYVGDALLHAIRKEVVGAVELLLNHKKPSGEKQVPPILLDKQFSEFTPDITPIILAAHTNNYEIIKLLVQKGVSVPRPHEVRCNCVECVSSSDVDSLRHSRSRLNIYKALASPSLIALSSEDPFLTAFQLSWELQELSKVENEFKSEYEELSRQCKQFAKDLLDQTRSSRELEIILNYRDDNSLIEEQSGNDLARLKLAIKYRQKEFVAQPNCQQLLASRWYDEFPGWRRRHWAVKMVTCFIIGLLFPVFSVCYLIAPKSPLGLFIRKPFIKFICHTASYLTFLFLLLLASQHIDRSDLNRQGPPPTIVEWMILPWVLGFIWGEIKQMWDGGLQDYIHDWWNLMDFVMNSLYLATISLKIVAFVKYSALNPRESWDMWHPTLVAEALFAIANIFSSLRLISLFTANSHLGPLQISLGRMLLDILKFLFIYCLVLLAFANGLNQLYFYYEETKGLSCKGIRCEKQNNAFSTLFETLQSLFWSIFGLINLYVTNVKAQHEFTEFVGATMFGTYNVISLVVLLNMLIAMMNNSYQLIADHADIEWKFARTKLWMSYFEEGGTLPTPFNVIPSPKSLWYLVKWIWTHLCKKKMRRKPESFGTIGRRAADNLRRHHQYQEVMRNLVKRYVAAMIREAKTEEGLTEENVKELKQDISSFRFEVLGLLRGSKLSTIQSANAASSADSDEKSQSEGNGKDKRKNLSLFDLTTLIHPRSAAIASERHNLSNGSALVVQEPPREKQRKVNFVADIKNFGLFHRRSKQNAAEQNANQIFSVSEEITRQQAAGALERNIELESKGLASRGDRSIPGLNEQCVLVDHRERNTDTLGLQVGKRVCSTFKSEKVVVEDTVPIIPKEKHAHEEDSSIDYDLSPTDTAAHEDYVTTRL

[9] = molecular target: T5, Ubiquitin-conjugating enzyme E2 N (Homo sapiens, UniProt P61088); type: functional;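 also: Dose-response confirmation in a TR-FRET assay detecting UBC13-driven polyubiquitin chain formation, inhibition measured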
T5 sequence (P61088 whole entry): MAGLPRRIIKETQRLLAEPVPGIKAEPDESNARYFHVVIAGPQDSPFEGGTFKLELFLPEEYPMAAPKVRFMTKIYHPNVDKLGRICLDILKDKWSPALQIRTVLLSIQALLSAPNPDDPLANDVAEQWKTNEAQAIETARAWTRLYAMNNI

[10] = P. falciparum Dd2 growth inhibitors, dose response, SYBR Green, cherry-picked samples (AID 1159567); type: functional, cell-based
H9c2 = assay: cells; type: functional, cell-based; details: Rattus norvegicus, H9c2, Myocardium;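 also: confirmatory concentration-response retest of ultra-high-throughput screening hits for modulation of myocardial damage; cell death induced by hydrogen peroxide oxidative stress; compound pretreatment for 60 min then peroxide exposure for 2 h; potency is for protecting the cells against peroxide damage rather than for killing them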
HEK293 = assay: inhibitors of LMP1-driven NF-kB reporter, dose response, cell-based, HEK293, luciferase, cherry-pick (AID 588343); type: functional; details: Homo sapiens
CHO = assay: cytotoxicity in TLR9-MyD88 CHO cells, dose response, cytotoxicity control for TLR9-MyD88 binding inhibitor project, cell-based, luminescence (AID 588339); type: functional, hamster; details: Cricetulus griseus;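 also: CHO cells stably coexpressing TLR9 and MyD88 fusions from primary screen; compound exposure lasted 48 hours before viability readout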

O=C(NN=Cc1cccc([N+](=O)[O-])c1)c1cc[n+](CCO)cc1
AC50 [1]: 14.1 µM (active)

O=C(O)c1[nH]c2ccc(Cl)cc2c1CC(=O)N1CCN(c2ccccc2)CC1
IC50 [2]: 13.2 µM (active)

CN1CCc2ccccc2Cc2[nH]c3ccccc3c2CC1
AC50 [3]: 25.6 µM (active)
AC50 [4]: 8.06 µM (active)
AC50 [5]: > 70 µM (inactive)

CN1CCN(c2cc(N3CCNCC3)ccc2[N+](=O)[O-])CC1
AC50 [6]: 14.5 µM (active)

CN1CCN(c2nc(Nc3ccc(O)cc3)nc3ccccc23)CC1
IC50 (Large T antigen): 8.58 µM (active)
AC50 [1]: 5.21 µM (active)

CN(C)CCNC(=O)c1cccc(-c2cnc3c(NC=O)cc(-c4ccc(S(C)(=O)=O)cc4)cn23)c1
AC50 [1]: 5.29 µM (active)
AC50 [6]: 24.1 µM (active)

CCN(CC)CCCNc1nc(-c2ccccc2)nc2ccccc12
AC50 [6]: 13 µM (active)

Nc1nonc1-n1nnc(C(=O)N/N=C/c2ccccc2O)c1CN1CCCC1
AC50 (INS1): 5.79 µM (active)
IC50 (Nonstructural protein 1): 11.4 µM (active)

O=C(C[n+]1cc(Br)cc2ccccc21)c1ccc(Br)cc1
IC50 [2]: 11.4 µM (active)

CC(c1ccccc1)n1c(-c2cccs2)nc2c(c(=O)c3ccccc3n2C)c1=O (stereo unspecified)
CC50 (Vero): > 25 µM (active)

Clc1ccc(-c2csc3ncnc(NCCN4CCOCC4)c23)cc1
AC50 [7]: 18.1 µM (active)
AC50 [3]: 3.74 µM (active)
EC50 [8]: 3.35 µM (active)
AC50 [4]: 2.24 µM (active)
AC50 [5]: > 70 µM (inactive)

CCOC(=O)c1cnc2c(C)cccc2c1NCCCN1CCOCC1
AC50 [6]: 16.6 µM (active)

Cc1cc(SCc2cc(=O)n3ccsc3n2)nc2ccccc12
IC50 [2]: 13.2 µM (active)

COc1ccc(NC(=O)CSc2nc3ccsc3c(=O)n2CCCCCC(=O)O)cc1
IC50 [9]: > 20 µM (inactive)

O=C(C[C@H]1CC[C@@H]2[C@H](COC[C@H](O)CN2Cc2cc(F)ccc2F)O1)N[C@@H]1CCN(Cc2ccccc2)C1
AC50 [10]: 7.42 µM (active)

O=C(CSc1n[nH]c(-c2ccccn2)n1)Nc1ccccc1F
IC50 (Nonstructural protein 1): 7.23 µM (active)

COc1ccc(Nc2cc(C)nc3ccc(OC)cc23)cc1
AC50 [1]: 15 µM (active)
AC50 [6]: 20.5 µM (active)
EC50 [8]: 4.73 µM (active)

CCCC(C(=O)NC(C)(C)C)N(CC1CCCO1)C(=O)c1snc(C(N)=O)c1N (stereo unspecified)
IC50 [9]: > 20 µM (inactive)

O=C1c2cccc3cccc(c23)C(=O)N1CCN1CCN(CC(O)COc2ccccc2)CC1 (stereo unspecified)
IC50 [9]: > 20 µM (inactive)

CN(C)c1ccc(NC(=O)CN2CCC(NC(=O)C3CCCCC3)CC2)cc1
IC50 [9]: > 20 µM (inactive)
AC50 [1]: 14.8 µM (active)

COc1cc(NC(=O)c2csc(-c3ccncc3)n2)cc(C(=O)Nc2cccc(C(F)(F)F)c2)c1
IC50 (H9c2): > 79 µM (inactive)
IC50 [2]: 6.44 µM (active)

CC1=C(C(=O)OCCOc2ccccc2)C(c2ccsc2)NC(=O)N1C (stereo unspecified)
IC50 [2]: 13.2 µM (active)

COc1cc2c(cc1OC)-c1cc3ccc(OC)c(OC)c3c[n+]1CC2 [PALMATINE CHLORIDE]
AC50 [1]: 5.19 µM (active)

CC1CCN(CCCNC(=O)c2ccc3c(Cl)c4c(nc3c2)CCCC4)CC1
CC50 (Vero): > 25 µM (active)

CN1c2ccc(-c3ccccc3)cc2[C@@H]2[C@@H](CCN2C(=O)c2ccccc2)[C@H]1CO
AC50 [10]: 8.29 µM (active)

CCN(C[C@H]1N[C@@](C)(C(=O)OC)[C@H]2C(=O)N(Cc3ccccc3)C(=O)[C@@H]12)C(=O)Nc1ccccc1
AC50 [7]: 2.56 µM (active)
AC50 [3]: 2.92 µM (active)
AC50 [4]: 2.42 µM (active)
AC50 [5]: 3.81 µM (active)

CC(C)CC1C(=O)N(Cc2cn(CC3CCCCC3)nn2)CCS(=O)(=O)N1Cc1ccc(-c2ccc(F)nc2)cc1 (stereo unspecified)
CC50 (Vero): 19.6 µM (active)
AC50 (HEK293): 32.8 µM (active)

CCOC(=O)N1CCN(C(=O)c2ccc3c(c2)N(Cc2ccc(F)cc2)CCS3)CC1
IC50 [9]: > 20 µM (inactive)

CS(=O)(=O)c1sc2nc(-c3ccccc3)cc(-c3ccccc3)c2c1N
IC50 (CHO): > 49.8 µM (inactive)
